Results from the supplement of paper PMC10307832.

Assays:
Assay in all cases: relative viability (nuclei count vs DMSO), 5 days (fraction); higher = more cells survive
[1] = compound: CS(=O)(=O)N1CCN(Cc2cc3nc(-c4cccc5[nH]ncc45)nc(N4CCOCC4)c3s2)CC1 [Pictilisib] + Nc1ncn([C@H]2C[C@H](O)[C@@H](CO)O2)c(=O)n1 [Decitabine] (partner 2 µM)
Outline: (§1)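 Each reported value is a median over duplicate plates. It expresses relative viability: treated-well nuclei count divided by vehicle-well nuclei count. Lung cancer cell lines in 1536-well plates were dosed by pin tool a day after seeding, alone with one drug or with a fixed anchor-drug dose plus five library-drug doses (not always all listed) in √10 steps, and nuclei were counted after 5 days.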

[2] = compound: NC1(c2ccc(-c3nc4ccn5c(=O)[nH]nc5c4cc3-c3ccccc3)cc2)CCC1 [MK-2206] + Cc1cc(Nc2cc(N3CCN(C)CC3)nc(Sc3ccc(NC(=O)C4CC4)cc3)n2)n[nH]1 [Tozasertib] (partner 0.1 µM)
Outline: as §1

[3] = compound: NC1(c2ccc(-c3nc4ccn5c(=O)[nH]nc5c4cc3-c3ccccc3)cc2)CCC1 [MK-2206] + CC(=O)Nc1cccc(-n2c(=O)n(C3CC3)c(=O)c3c(Nc4ccc(I)cc4F)n(C)c(=O)c(C)c32)c1 [Trametinib] (partner 0.02 µM)
Outline: as §1

[4] = compound: NC1(c2ccc(-c3nc4ccn5c(=O)[nH]nc5c4cc3-c3ccccc3)cc2)CCC1 [MK-2206] + N=C(N)NC(=N)NCCc1ccccc1 [Phenformin] (partner 250 µM)
Outline: as §1

[5] = compound: NC1(c2ccc(-c3nc4ccn5c(=O)[nH]nc5c4cc3-c3ccccc3)cc2)CCC1 [MK-2206] + CS(=O)(=O)CCNCc1ccc(-c2ccc3ncnc(Nc4ccc(OCc5cccc(F)c5)c(Cl)c4)c3c2)o1 [Lapatinib] (partner 2 µM)
Outline: as §1

Row | Cell Line | relative viability ([1]; first compound 0.02 µM) | relative viability ([1]; first compound 0.06325 µM) | relative viability ([1]; first compound 0.6325 µM) | relative viability ([1]; first compound 2 µM) | relative viability ([2]; first compound 0.01 µM) | relative viability ([2]; first compound 0.03162 µM) | relative viability ([2]; first compound 0.3162 µM) | relative viability ([2]; first compound 1 µM) | relative viability ([3]; first compound 0.01 µM) | relative viability ([3]; first compound 0.03162 µM) | relative viability ([3]; first compound 0.3162 µM) | relative viability ([3]; first compound 1 µM) | relative viability ([4]; first compound 0.01 µM) | relative viability ([4]; first compound 0.03162 µM) | relative viability ([4]; first compound 0.3162 µM) | relative viability ([4]; first compound 1 µM) | relative viability ([5]; first compound 0.01 µM) | relative viability ([5]; first compound 0.03162 µM) | relative viability ([5]; first compound 0.3162 µM) | relative viability ([5]; first compound 1 µM)
1 | BEN | 0.659 | 0.776 | 0.806 | 0.554 | 0.554 | 0.621 | 0.416 | 0.443 | 1.17 | 1.2 | 1.23 | 1.05 | 0.258 | 0.267 | 0.272 | 0.295 | 0.679 | 0.658 | 0.697 | 0.657
2 | LXF-289 | 0.361 | 0.4 | 0.337 | 0.443 | 0.209 | 0.201 | 0.238 | 0.172 | 0.65 | 0.699 | 0.68 | 0.663 | 0.506 | 0.542 | 0.542 | 0.548 | 0.907 | 0.985 | 0.911 | 0.901
3 | NCI-H358 | 0.199 | 0.199 | 0.18 | 0.115 | 0.0987 | 0.112 | 0.097 | 0.0994 | 0.146 | 0.145 | 0.132 | 0.117 | 0.338 | 0.352 | 0.328 | 0.412 | 0.47 | 0.41 | 0.394 | 0.376
4 | NCI-H1993 | 0.692 | 0.483 | 0.459 | 0.458 | 0.611 | 0.542 | 0.541 | 0.525 | 0.61 | 0.422 | 0.43 | 0.419 | 0.496 | 0.491 | 0.562 | 0.568 | 0.869 | 0.83 | 0.749 | 0.758
5 | NCI-H727 | 0.651 | 0.979 | 0.699 | 0.781 | 0.578 | 0.659 | 0.559 | 0.626 | 0.402 | 0.382 | 0.388 | 0.37 | 0.607 | 0.71 | 0.533 | 0.592 | 0.873 | 1.05 | 0.856 | 0.513
6 | LOU-NH91 | 0.827 | 0.829 | 0.771 | 0.7 | 0.693 | 0.727 | 0.658 | 0.645 | 0.793 | 0.817 | 0.77 | 0.686 | 0.682 | 0.727 | 0.683 | 0.555 | 0.786 | 0.739 | 0.603 | 0.584
7 | NCI-H1975 | 0.385 | 0.377 | 0.329 | 0.257 | 0.798 | 0.66 | 0.573 | 0.535 | 0.305 | 0.352 | 0.261 | 0.371 | 0.428 | 0.402 | 0.312 | 0.326 | 0.837 | 0.996 | 0.781 | 0.534
8 | PC-3 [JPC-3] | 0.84 | 0.92 | 0.813 | 0.748 | 0.874 | 0.83 | 0.873 | 0.899 | 0.686 | 0.804 | 0.599 | 0.735 | 0.48 | 0.486 | 0.475 | 0.466 | 0.469 | 0.457 | 0.437 | 0.441
9 | NCI-H2126 | 0.559 | 0.57 | 0.473 | 0.494 | 0.814 | 0.897 | 0.822 | 0.775 | 0.559 | 0.543 | 0.515 | 0.455 | 0.515 | 0.501 | 0.446 | 0.426 | 0.803 | 0.739 | 0.75 | 0.737
10 | LU99A | 0.969 | 0.919 | 0.901 | 0.441 | 0.302 | 0.281 | 0.271 | 0.21 | 0.524 | 0.537 | 0.473 | 0.553 | 1.01 | 0.874 | 0.803 | 0.903 | 1.05 | 0.871 | 0.904 | 0.877
11 | NCI-H23 | 0.305 | 0.333 | 0.309 | 0.271 | 0.43 | 0.359 | 0.364 | 0.281 | 0.267 | 0.342 | 0.345 | 0.299 | 0.688 | 0.844 | 0.673 | 0.666 | 0.982 | 0.98 | 1.16 | 1.1
12 | PC-14 | 0.245 | 0.254 | 0.302 | 0.322 | 0.593 | 0.653 | 0.587 | 0.642 | 0.557 | 0.876 | 0.516 | 0.704 | 0.493 | 0.663 | 0.584 | 0.525 | 0.297 | 0.316 | 0.287 | 0.221
13 | HCC-44 | 0.92 | 0.958 | 0.926 | 0.94 | 0.993 | 1.1 | 1.03 | 0.98 | 0.927 | 1.02 | 1.11 | 1.04 | 0.184 | 0.184 | 0.152 | 0.107 | 1.01 | 1.01 | 1.05 | 1.07
14 | A-427 | 0.579 | 0.492 | 0.486 | 0.453 | 0.218 | 0.197 | 0.191 | 0.207 | 0.819 | 0.748 | 0.666 | 0.62 | 0.325 | 0.297 | 0.219 | 0.25 | 1.11 | 1.03 | 1.09 | 1.12
15 | NCI-H596 | 0.963 | 1.02 | 0.756 | 0.403 | 0.912 | 1.01 | 0.829 | 0.765 | 0.728 | 0.756 | 0.713 | 0.603 | 0.738 | 0.956 | 0.651 | 0.481 | 1.12 | 1.11 | 0.912 | 0.684
